Reference: patent publication US7868026B2, “Therapeutic compounds” (Pfizer Inc., priority 2005, dated 2011)
Read-outs that look alike come from different tables or passages of the source.

Assays:
Assay type in all cases: biochemical
CYP3A4 [1] = target: T1, CYP3A4 (Homo sapiens, UniProt P08684); assay: Determination of compound Kiapp against recombinant CYP3A4 enzyme (BFC fluorescent substrate)
In short: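 Recombinant CYP3A4 (5.5 or 8 nM, with or without b5 depending on source) pre-incubated with inhibitor ≥30 min at room temperature in 100 mM sodium phosphate pH 7.0, 5 mM TCEP, 2% DMF. Reaction started with 200 uM NADPH and 5 uM BFC; initial fluorescence rates over 5 min fitted to Morrison tight-binding (non-partial) or Szedlacsek (partial) equations for Kiapp.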

CYP3A4 [2] = target: T1, CYP3A4; assay: Determination of IC50 against CYP3A4 by measurement of inhibition of testosterone metabolism (human liver microsomes, 6-β-OH-testosterone by LC-MS/MS); set-up: 0.1 mg/mL human liver microsomes; settings: read-out: IC50 (Testo.)
In short: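 Human liver microsomes (0.1 mg/mL) incubated with 25 μM testosterone and 1 mM NADPH in 100 mM potassium phosphate, pH 7.4, for eight minutes. 6-β-OH-testosterone measured by LC-MS/MS in MRM mode against an internal standard and quantified from a metabolite standard curve.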

CYP3A4 [3] = target: T1, CYP3A4; assay: Determination of IC50 against CYP3A4 by measurement of inhibition of midazolam metabolism (human liver microsomes, 1-hydroxymidazolam by LC-MS/MS); set-up: 0.1 mg/mL human liver microsomes; settings: 2 μM midazolam, 0.1 mg/mL human liver microsomes
In short: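 Human liver microsomes (0.1 mg/mL) incubated 8 min with 2 μM midazolam and 1 mM NADPH in 100 mM potassium phosphate, pH 7.4. 1-Hydroxymidazolam quantified by LC-MS/MS (MRM) as peak area ratio to internal standard against a metabolite standard curve.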

[4] = Baculo. enzyme preparation, read-out: Kiapp (BFC, Baculo.)
[5] = Super. enzyme preparation, read-out: Kiapp (BFC, Super.)

T1 sequence (P08684 whole entry): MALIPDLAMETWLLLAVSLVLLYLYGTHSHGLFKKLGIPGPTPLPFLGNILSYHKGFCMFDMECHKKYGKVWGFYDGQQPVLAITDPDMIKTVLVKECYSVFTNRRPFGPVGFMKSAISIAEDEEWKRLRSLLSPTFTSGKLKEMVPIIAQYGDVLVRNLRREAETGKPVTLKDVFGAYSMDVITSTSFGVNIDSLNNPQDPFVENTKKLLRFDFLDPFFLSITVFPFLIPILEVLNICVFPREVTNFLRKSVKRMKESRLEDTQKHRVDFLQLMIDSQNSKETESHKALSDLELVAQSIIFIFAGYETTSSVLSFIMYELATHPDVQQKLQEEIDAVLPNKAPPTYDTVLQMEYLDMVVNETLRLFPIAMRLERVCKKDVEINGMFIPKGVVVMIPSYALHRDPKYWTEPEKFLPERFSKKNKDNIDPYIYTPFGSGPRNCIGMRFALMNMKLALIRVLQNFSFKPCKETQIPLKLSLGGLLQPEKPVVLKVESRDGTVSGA

| Ki (CYP3A4 [1]; [4]) | Ki (CYP3A4 [1]; [5]) | IC50 (CYP3A4 [2]) | IC50 (CYP3A4 [3]) | Compound |
| --- | --- | --- | --- | --- |
| > 1000 nM | 187 nM | 395 nM | 139 nM | Cc1ccncc1NS(=O)(=O)c1ccccc1C(=O)NCc1ccc(S(C)(=O)=O)cc1 [Example 169, 2-{[(4-methylpyridin-3-yl)amino]sulfonyl}-N-[4-(methylsulfonyl)benzyl]benzamide] |
| 965 nM | 216 nM | 230 nM | 179 nM | CCOc1ccncc1NS(=O)(=O)c1ccccc1C(=O)NCCOC [Example 217, 2-{[(4-ethoxypyridin-3-yl)amino]sulfonyl}-N-(2-methoxyethyl)benzamide] |
| 4.3 nM | 3.14 nM | 7 nM | 10 nM | CCOc1ccncc1NS(=O)(=O)c1ccccc1C(=O)NCc1ccc(F)c(C(F)(F)F)c1 [Example 250, 2-{[(4-ethoxypyridin-3-yl)amino]sulfonyl}-N-[4-fluoro-3-(trifluoromethyl)benzyl]benzamide] |
| 82.6 nM | 9.1 nM | 17 nM | 12 nM | Cc1cncc(NS(=O)(=O)c2ccccc2C(=O)NCC2CCCC2)c1 [Example 334, N-(cyclopentylmethyl)-2-{[(5-methylpyridin-3-yl)amino]sulfonyl}benzamide] |
| 560 nM | 19.2 nM | 178 nM | 43 nM | COc1cncc(NS(=O)(=O)c2ccccc2C(=O)NCCc2cccnc2)c1 [Example 384, 2-{[(5-methoxypyridin-3-yl)amino]sulfonyl}-N-(2-pyridin-3-ylethyl)benzamide] |
| 751 nM | 144 nM | 129 nM | 64 nM | Cc1cncc(NS(=O)(=O)c2ccccc2C(=O)NCc2ccc(S(C)(=O)=O)cc2)c1 [Example 159, 2-{[(5-methylpyridin-3-yl)amino]sulfonyl}-N-[4-(methylsulfonyl)benzyl]benzamide] |
| 34.7 nM | 5.4 nM | 26 nM | 13 nM | Cc1cncc(NS(=O)(=O)c2ccccc2C(=O)N(C)CC2CCCC2)c1 [Example 347, N-(cyclopentylmethyl)-N-methyl-2-{[(5-methylpyridin-3-yl)amino]sulfonyl}benzamide] |
| > 1000 nM |  | 340 nM | 179 nM | CCN(CCn1cccn1)C(=O)c1ccccc1S(=O)(=O)Nc1cccnc1 [Example 40, N-ethyl-N-[2-(1H-pyrazol-1-yl)ethyl]-2-[(pyridin-3-ylamino)sulfonyl]benzamide] |
| 449 nM | 42.4 nM | 84.1 nM | 84.2 nM | CCCCNC(=O)c1ccccc1S(=O)(=O)Nc1cccnc1 [Example 63, N-butyl-2-[(pyridin-3-ylamino)sulfonyl]benzamide] |
| > 1000 nM | 320 nM | 9 nM | 65 nM | O=C(c1ccccc1S(=O)(=O)Nc1cncc(Br)c1)N1CCCCC1 [Example 392, N-(5-bromopyridin-3-yl)-2-(piperidin-1-ylcarbonyl)benzenesulfonamide] |
| 144 nM | 26.2 nM | 177 nM | 30 nM | Cc1ccc(CNC(=O)c2ccccc2S(=O)(=O)Nc2cccnc2)cc1 [Example 79, N-(4-methylbenzyl)-2-[(pyridin-3-ylamino)sulfonyl]benzamide] |
| 483 nM | 74.5 nM | 79 nM | 29 nM | COc1cncc(NS(=O)(=O)c2ccccc2C(=O)NC(C)(C)C)c1 [Example 374, N-(tert-butyl)-2-{[(5-methoxypyridin-3-yl)amino]sulfonyl}benzamide] |
| 250 nM | 42.2 nM | 43 nM | 22 nM | Cc1cncc(NS(=O)(=O)c2ccccc2C(=O)NC(C)C2CC2)c1 (stereo not shown) [Example 315, N-(1-cyclopropylethyl)-2-{[(5-methylpyridin-3-yl)amino]sulfonyl}benzamide] |
| > 1000 nM |  | 371 nM | 254 nM | CCCNC(=O)c1ccccc1S(=O)(=O)Nc1cccnc1 [Example 50, N-propyl-2-[(pyridin-3-ylamino)sulfonyl]benzamide] |
| 332 nM |  | 30 nM | 26 nM | CCCCCN(C)C(=O)c1ccccc1S(=O)(=O)Nc1cccnc1 [Example 47, N-methyl-N-pentyl-2-[(pyridin-3-ylamino)sulfonyl]benzamide] |
| 120 nM | 24.6 nM | 7 nM | 8 nM | COc1cncc(NS(=O)(=O)c2ccccc2C(=O)NCCC(C)C)c1 [Example 379, 2-{[(5-methoxypyridin-3-yl)amino]sulfonyl}-N-(3-methylbutyl)benzamide] |

| Ki (CYP3A4 [1]; [4]) | Ki (CYP3A4 [1]; [5]) | IC50 (CYP3A4 [2]) | IC50 (CYP3A4 [3]) | Compound |
| --- | --- | --- | --- | --- |
| 54.7 nM | 5.4 nM | 11 nM | 9 nM | COc1cncc(NS(=O)(=O)c2ccccc2C(=O)NCCc2ccccc2OC)c1 [Example 263, N-[2-(2-methoxyphenyl)ethyl]-2-{[(5-methoxypyridin-3-yl)amino]sulfonyl}benzamide] |
| 110 nM | 19.4 nM | 63 nM | 44 nM | CCCCCN(C)C(=O)c1cc(Cl)ccc1S(=O)(=O)Nc1cncc(OC)c1 [Example 268, 5-chloro-2-{[(5-methoxypyridin-3-yl)amino]sulfonyl}-N-methyl-N-pentylbenzamide] |
| 55.9 nM | 5.8 nM | 66 nM | 41 nM | O=C(NCc1ccccc1F)c1ccccc1S(=O)(=O)Nc1cccnc1 [Example 5, N-(2-fluorobenzyl)-2-[(pyridin-3-ylamino)sulfonyl]benzamide] |
| 246 nM | 200 nM | 289 nM | 254 nM | COc1cncc(NS(=O)(=O)c2ccc(OCCN3CCNCC3)cc2C(=O)N(C)C(C)C)c1 [Example 242, N-isopropyl-2-{[(5-methoxypyridin-3-yl)amino]sulfonyl}-N-methyl-5-(2-piperazin-1-ylethoxy)benzamide] |
| 9.9 nM | 1.9 nM | 165 nM | 145 nM | Cc1cncc(NS(=O)(=O)c2ccccc2C(=O)NCc2ccc(Cl)c(Cl)c2)c1 [Example 318, N-(3,4-dichlorobenzyl)-2-{[(5-methylpyridin-3-yl)amino]sulfonyl}benzamide] |
| 281 nM | 34.3 nM | 47 nM | 24 nM | Cc1ccncc1NS(=O)(=O)c1ccccc1C(=O)N(C)CCC(C)C [Example 164, N-methyl-N-(3-methylbutyl)-2-{[(4-methylpyridin-3-yl)amino]sulfonyl}benzamide] |
| 75.2 nM | 10.9 nM | 14 nM | 12 nM | CCCN(CC1CC1)C(=O)c1ccccc1S(=O)(=O)Nc1cncc(C)c1 [Example 331, N-(cyclopropylmethyl)-2-{[(5-methylpyridin-3-yl)amino]sulfonyl}-N-propylbenzamide] |
| 59.7 nM | 5 nM | 15 nM | 10 nM | COc1cncc(NS(=O)(=O)c2ccccc2C(=O)NCCc2ccc(F)cc2F)c1 [Example 191, N-[2-(2,4-difluorophenyl)ethyl]-2-{[(5-methoxypyridin-3-yl)amino]sulfonyl}benzamide] |
| 76.7 nM | 9.4 nM | 29 nM | 24 nM | Cc1cccc(CCNC(=O)c2ccccc2S(=O)(=O)Nc2cccnc2)c1 [Example 76, N-[2-(3-methylphenyl)ethyl]-2-[(pyridin-3-ylamino)sulfonyl]benzamide] |
| 409 nM | 135 nM | 48 nM | 75 nM | CN(c1cccnc1)S(=O)(=O)c1ccccc1C(=O)N1CCCC(C)(C)C1 [Example 345, 2-[(3,3-dimethylpiperidin-1-yl)carbonyl]-N-methyl-N-pyridin-3-ylbenzenesulfonamide] |
| 150 nM | 9.1 nM | 25.3 nM | 26.5 nM | O=C(NC1Cc2ccccc2C1)c1ccccc1S(=O)(=O)Nc1cccnc1 [Example 58, N-(2,3-dihydro-1H-inden-2-yl)-2-[(pyridin-3-ylamino)sulfonyl]benzamide] |
| 135 nM | 32.1 nM | 57 nM | 24 nM | CCOc1cncc(NS(=O)(=O)c2ccccc2C(=O)NC(C)(C)C)c1 [Example 294, N-(tert-butyl)-2-{[(5-ethoxy-pyridin-3-yl)amino]sulfonyl} benzamide] |
| 145 nM | 26.8 nM | 109 nM | 54 nM | COc1cncc(NS(=O)(=O)c2ccc(OCCCN(C)C)cc2C(=O)NCc2ccc(F)cc2)c1 [Example 266, 5-[3-(dimethylamino)propoxy]-N-(4-fluorobenzyl)-2-{[(5-methoxypyridin-3-yl)amino]sulfonyl}benzamide] |
| 70.8 nM | 35.6 nM | 32 nM | 15 nM | CCCN(CC)C(=O)c1ccccc1S(=O)(=O)Nc1cncc(OC)c1 [Example 195, N-ethyl-2-{[(5-methoxypyridin-3-yl)amino]sulfonyl}-N-propylbenzamide] |
| 553 nM | 65.1 nM | > 750 nM | 253 nM | COc1cncc(NS(=O)(=O)c2ccccc2C(=O)N2CCC(OC)CC2)c1 [Example 366, 2-[(4-methoxypiperidin-1-yl)carbonyl]-N-(5-methoxypyridin-3-yl)benzenesulfonamide] |
